Source: patent publication US9809574B2, “Isoindoline or isoquinoline compounds, a process for their preparation and pharmaceutical compositions containing them” (LES LABORATOIRES SERVIER, priority 2013, dated 2017)
Structures can show the parent of a compound that is named as a salt.

Columns and labels:
[1] = test system: RS4; 11 leukaemia cell line; assay: In vitro cytotoxicity, Microculture Tetrazolium Assay (MTT); assay type: cell-based; conditions: Homo sapiens, 11 cells exposed for 48 hours
Procedure: The cytotoxicity studies were carried out on the RS4; 11 leukaemia cell line and on H146 small Cell Lung Carcinoma cell line. The cells are distributed onto microplates and exposed to the test compounds for 48 hours. The cell viability is then quantified by a colorimetric assay, the Microculture Tetrazolium Assay (Cancer Res., 1987, 47, 939-942).

Bcl-2 protein = Bcl-2 protein (histag-Bcl-2, UniProtKB P10415) (Homo sapiens (Human), UniProt P10415); assay: Inhibition of Bcl-2 by the fluorescence polarisation technique; assay type: binding; conditions: fluorescence polarisation test; incubation for 2 hours; read-out: IC50 (nM) Bcl-2 FP
Description: For partial inhibitors, the percentage fluorescence polarisation inhibition for a given concentration of the test compound is indicated.

Chain of Bcl-2 protein (P10415 whole entry): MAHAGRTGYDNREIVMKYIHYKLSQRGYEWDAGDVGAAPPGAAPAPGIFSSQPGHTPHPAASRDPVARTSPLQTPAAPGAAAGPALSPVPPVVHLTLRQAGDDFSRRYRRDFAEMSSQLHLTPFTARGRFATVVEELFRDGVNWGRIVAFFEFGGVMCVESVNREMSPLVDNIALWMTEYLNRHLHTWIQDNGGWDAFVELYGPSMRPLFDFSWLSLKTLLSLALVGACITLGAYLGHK

SMILES	IC50 [1]	IC50 (Bcl-2 protein)
COc1ccc(CC(=O)N2Cc3cc(C(=O)N4Cc5ccccc5C[C@H]4C)c(-c4cc(C(=O)N(C)c5ccc(O)cc5)c5n4CCCC5)cc3C2)cc1 [Example 51, N-(4-Hydroxyphenyl)-3-{2-[2-(4-methoxyphenyl)acetyl]-6-[(3R)-3-methyl-1,2,3,4-tetrahydroisoquinoline-2-carbonyl]-2,3-dihydro-1H-isoindol-5-yl}-N-methyl-5,6,7,8-tetrahydroindolizine-1-carboxamide]	23 nM	5.5 nM
C[C@@H]1Cc2ccccc2CN1C(=O)c1cc2c(cc1-c1cc(C(=O)N(C)c3ccc(O)cc3)c3n1CCCC3)CN(C(=O)COc1cccc(Cl)c1)C2 [Example 50, 3-{2-[2-(3-Chlorophenoxy)acetyl]-6-[(3R)-3-methyl-1,2,3,4-tetrahydroisoquinoline-2-carbonyl]-2,3-dihydro-1H-isoindol-5-yl}-N-(4-hydroxyphenyl)-N-methyl-5,6,7,8-tetrahydroindolizine-1-carboxamide]	26 nM	18 nM
CC(=O)N1Cc2cc(C(=O)N3Cc4ccccc4C[C@H]3C)c(-c3cc(C(=O)N(C)c4ccc(O)cc4)c(C)n3C)cc2C1 [Example 112, 5-{2-Acetyl-6-[(3R)-3-methyl-1,2,3,4-tetrahydroisoquinoline-2-carbonyl]-2,3-dihydro-1H-isoindol-5-yl}-N-(4-hydroxyphenyl)-N,1,2-trimethyl-1H-pyrrole-3-carboxamide]	394 nM	42 nM
Cc1c(C(=O)N(C)c2ccccc2)cc(-c2cc3c(cc2C(=O)N2Cc4ccccc4C[C@H]2C)CN(C(=O)Oc2ccc4[nH]ccc4c2)CC3)n1C [Example 789, 1H-Indol-5-yl 6-{1,5-dimethyl-4-[methyl(phenyl)carbamoyl]-1H-pyrrol-2-yl}-7-[(3R)-3-methyl-1,2,3,4-tetrahydroisoquinoline-2-carbonyl]-1,2,3,4-tetrahydroisoquinoline-2-carboxylate]	14 nM	8.9 nM
C[C@H](C(=O)N1CCc2cc(-c3cc(C(=O)N(C)c4ccc(O)cc4)c4n3CCCC4)c(C(=O)N3Cc4ccccc4C[C@H]3C)cc2C1)c1ccccc1 [Example 90, N-(4-Hydroxyphenyl)-N-methyl-3-{7-[(3R)-3-methyl-1,2,3,4-tetrahydroisoquinoline-2-carbonyl]-2-[(2S)-2-phenylpropanoyl]-1,2,3,4-tetrahydroisoquinolin-6-yl}-5,6,7,8-tetrahydroindolizine-1-carboxamide]	39 nM	6.2 nM
CN(C(=O)c1cc(-c2cc3c(cc2C(=O)N2Cc4ccccc4C[C@H]2CN2CCOCC2)CN(C(=O)Nc2ccccc2)CC3)n2c1CCCC2)c1ccc(O)cc1 [Example 77, 6-{1-[(4-Hydroxyphenyl)(methyl)carbamoyl]-5,6,7,8-tetrahydroindolizin-3-yl}-7-[(3S)-3-(morpholin-4-ylmethyl)-1,2,3,4-tetrahydroisoquinoline-2-carbonyl]-N-phenyl-1,2,3,4-tetrahydroisoquinoline-2-carboxamide]	84 nM	4 nM
CN(C(=O)c1cc(-c2cc3c(cc2C(=O)N2Cc4ccccc4C[C@H]2CN2CCOCC2)CN(C(=O)Oc2ccc(-n4ccnc4)cc2)CC3)n2c1CCCC2)c1ccc(O)cc1 [Example 143, 4-(1H-imidazol-1-yl)phenyl 6-{1-[(4-hydroxyphenyl)(methyl)carbamoyl]-5,6,7,8-tetrahydroindolizin-3-yl}-7-[(3S)-3-(morpholin-4-ylmethyl)-1,2,3,4-tetrahydroisoquinoline-2-carbonyl]-1,2,3,4-tetrahydroisoquinoline-2-carboxylate]	9.3 nM	5.5 nM
CCCN(C(=O)c1cc(-c2cc3c(cc2C(=O)N2Cc4ccccc4C[C@H]2CN2CCOCC2)CN(C(=O)Cc2ccccc2)CC3)n(C)c1C)c1ccc(O)cc1 [Example 781, N-(4-Hydroxyphenyl)-1,2-dimethyl-5-{7-[(3S)-3-(morpholin-4-ylmethyl)-1,2,3,4-tetrahydroisoquinoline-2-carbonyl]-2-(2-phenylacetyl)-1,2,3,4-tetrahydroisoquinolin-6-yl}-N-propyl-1H-pyrrole-3-carboxamide]	9.7 nM	2.6 nM
Cc1c(C(=O)N(C)c2ccccc2)cc(-c2cc3c(cc2C(=O)N2Cc4ccccc4C[C@H]2CN2CCOCC2)CN(C(=O)Oc2cnc4c(ccn4C)c2)CC3)n1C [Example 634, 1-Methyl-1H-pyrrolo[2,3-b]pyridin-5-yl 6-{1,5-dimethyl-4-[methyl(phenyl)carbamoyl]-1H-pyrrol-2-yl}-7-[(3S)-3-(morpholin-4-ylmethyl)-1,2,3,4-tetrahydroisoquinoline-2-carbonyl]-1,2,3,4-tetrahydroisoquinoline-2-carboxylate]	21 nM	6.9 nM
CCS(=O)(=O)N1CCc2cc(-c3cc(C(=O)N(C)c4ccc(O)cc4)c4n3CCCC4)c(C(=O)N3Cc4ccccc4C[C@H]3C)cc2C1 [Example 56, 3-[2-(Ethanesulfonyl)-7-[(3R)-3-methyl-1,2,3,4-tetrahydroisoquinoline-2-carbonyl]-1,2,3,4-tetrahydroisoquinolin-6-yl]-N-(4-hydroxyphenyl)-N-methyl-5,6,7,8-tetrahydroindolizine-1-carboxamide]	59 nM	3.8 nM
Cc1c(C(=O)N(C)c2ccc(O)cc2)cc(-c2cc3c(cc2C(=O)N2Cc4ccccc4C[C@H]2CN2CCOCC2)CN(C(=O)Oc2ccc(Cl)cc2)CC3)n1C [Example 140, 4-Chlorophenyl 6-{4-[(4-hydroxyphenyl)(methyl)carbamoyl]-1,5-dimethyl-1H-pyrrol-2-yl}-7-[(3S)-3-(morpholin-4-ylmethyl)-1,2,3,4-tetrahydroisoquinoline-2-carbonyl]-1,2,3,4-tetrahydroisoquinoline-2-carboxylate]	4 nM	6.6 nM
CN(C(=O)c1cc(-c2cc3c(cc2C(=O)N2Cc4ccccc4C[C@H]2CN2CCOCC2)CN(S(=O)(=O)CCc2ccccc2)C3)n2c1CCCC2)c1ccc(O)cc1 [Example 21, N-(4-Hydroxyphenyl)-N-methyl-3-{6-[(3S)-3-(morpholin-4-ylmethyl)-1,2,3,4-tetrahydroisoquinoline-2-carbonyl]-2-(2-phenylethanesulfonyl)-2,3-dihydro-1H-isoindol-5-yl}-5,6,7,8-tetrahydroindolizine-1-carboxamide hydrochloride]	112 nM	14 nM
Cc1c(C(=O)N(C)c2ccc(O)cc2)cc(-c2cc3c(cc2C(=O)N2Cc4ccccc4C[C@H]2C)CN(C(=O)COc2ccccc2)C3)n1C [Example 103, N-(4-Hydroxyphenyl)-N,1,2-trimethyl-5-{6-[(3R)-3-methyl-1,2,3,4-tetrahydroisoquinoline-2-carbonyl]-2-(2-phenoxyacetyl)-2,3-dihydro-1H-isoindol-5-yl}-1H-pyrrole-3-carboxamide]	46 nM	3.6 nM
Cc1c(C(=O)N(C)c2ccc(O)cc2)cc(-c2cc3c(cc2C(=O)N2Cc4ccccc4C[C@H]2CN2CCOCC2)CN(C(=O)CCc2ccccc2)CC3)n1C [Example 130, N-(4-Hydroxyphenyl)-N,1,2-trimethyl-5-{7-[(3S)-3-(morpholin-4-ylmethyl)-1,2,3,4-tetrahydroisoquinoline-2-carbonyl]-2-(3-phenylpropanoyl)-1,2,3,4-tetrahydroisoquinolin-6-yl}-1H-pyrrole-3-carboxamide]	36 nM	3.1 nM
Cc1c(C(=O)N(C)c2ccccc2)cc(-c2cc3c(cc2C(=O)N2Cc4ccccc4C[C@H]2C)CN(C(=O)Cc2ccc(NCCN(C)C)cc2)CC3)n1C [Example 149, 5-{2-[2-(4-{[2-(Dimethylamino)ethyl]amino}phenyl)acetyl]-7-[(3R)-3-methyl-1,2,3,4-tetrahydroisoquinoline-2-carbonyl]-1,2,3,4-tetrahydroisoquinolin-6-yl}-N,1,2-trimethyl-N-phenyl-1H-pyrrole-3-carboxamide]	124 nM	11 nM
C[C@@H]1Cc2ccccc2CN1C(=O)c1cc2c(cc1-c1cc(C(=O)N(C)c3ccc(O)cc3)c3n1CCCC3)CCN(C(=O)N1CC(c3ccccc3)C1)C2 [Example 84, N-(4-Hydroxyphenyl)-N-methyl-3-{7-[(3R)-3-methyl-1,2,3,4-tetrahydroisoquinoline-2-carbonyl]-2-(3-phenylazetidine-1-carbonyl)-1,2,3,4-tetrahydroisoquinolin-6-yl}-5,6,7,8-tetrahydroindolizine-1-carboxamide]	33 nM	4.9 nM
CCCCN(CCCC)C(=O)c1cc(-c2cc3c(cc2C(=O)N2Cc4ccccc4C[C@H]2CN2CCOCC2)CN(C(=O)Oc2ccccc2)CC3)n(C)c1C [Example 197, Phenyl 6-[4-(dibutylcarbamoyl)-1,5-dimethyl-1H-pyrrol-2-yl]-7-[(3S)-3-(morpholin-4-ylmethyl)-1,2,3,4-tetrahydroisoquinoline-2-carbonyl]-1,2,3,4-tetrahydroisoquinoline-2-carboxylate]	> 150 nM	26 nM
Cc1c(C(=O)N(C)c2ccc(O)cc2)cc(-c2cc3c(cc2C(=O)N2Cc4ccccc4C[C@H]2CN2CCOCC2)CN(C(=O)NC2CCCCC2)CC3)n1C [Example 793, N-Cyclohexyl-6-{4-[(4-hydroxyphenyl)(methyl)carbamoyl]-1,5-dimethyl-1H-pyrrol-2-yl}-7-[(3S)-3-(morpholin-4-ylmethyl)-1,2,3,4-tetrahydroisoquinoline-2-carbonyl]-1,2,3,4-tetrahydroisoquinoline-2-carboxamide]	92 nM	4.4 nM
C[C@@H]1Cc2ccccc2CN1C(=O)c1cc2c(cc1-c1cc(C(=O)N(C)c3ccc(O)cc3)c3n1CCCC3)CN(C(=O)N(C)Cc1ccccc1)C2 [Example 85, N-Benzyl-5-{1-[(4-hydroxyphenyl)(methyl)carbamoyl]-5,6,7,8-tetrahydroindolizin-3-yl}-N-methyl-6-[(3R)-3-methyl-1,2,3,4-tetrahydroisoquinoline-2-carbonyl]-2,3-dihydro-1H-isoindole-2-carboxamide]	58 nM	6.1 nM
